Laboratory results as given in patent US12227488B2, “Small molecule degraders of Helios and methods of use” (DANA-FARBER CANCER INSTITUTE, INC., priority 2018, dated 2025).

Key:
[1] = test system: IKZF2; assay: Cellular degradation assay, eGFP-IKZF2Δ fusion with mCherry reporter in Flp-In 293 cells; format: cell-based; details: for IKZF2 GFP/RFP Relative Abundance: 5 h incubation, n=1; for DC50: half degradation at 5 h (DC50,5 h), triplicate, 11 point dose response
How it was run: (§1)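 DC50,5 h derived by variable-slope nonlinear fit of the per-well ratio of GFP-positive to mCherry-positive cells, imaged after 5 h compound exposure at 0.5% DMSO.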

[2] = target: GSPT1 (Homo sapiens, UniProt P15170+Q96SW2); assay: Cellular degradation assay, eGFP-GSPT1 fusion with mCherry reporter in Flp-In 293 cells; format: cell-based; set-up: expressed in transfected cells; host or cells: Flp-In 293; details: for GSPT1 GFP/RFP Relative Abundance: 5 h incubation, n=1; for DC50: half degradation at 5 h (DC50,5 h), triplicate, 11 point dose response
Method: IKZF1Δ, IKZF2Δ, GSPT1 and SALL4 ZnF1-2 were subcloned into mammalian pcDNA5/FRT Vector (Ampicillin and Hygromycin B resistant) modified to contain MCS-eGFP-P2A-mCherry. […] Following 2-3 passage cycle, FACS (FACSAria™ II, BD) was used to enrich for cells expressing eGFP and mCherry. Cells stably expressing the IKZF1Δ, IKZF2Δ, GSPT1 or SALL4 Znf1-2 GFP fusions with mCherry reporter were seeded at 30-50% confluency in 384-well plates with 50 μL FluoroBrite™ DMEM media (Thermo Fisher Scientific, A18967) containing 10% FBS per well a day before compound treatment. Compound titrations were dispensed using a D300e Digital Dispenser (HP), normalized to 0.5% DMSO, and incubated with cells for 5 hours.
The resulting images were analyzed using CellProfiler™. A series of image analysis steps (‘image analysis pipeline’) was constructed. First, the red and green channels were aligned and cropped to target the middle of each well (to avoid analysis of heavily clumped cells at the edges), and a background illumination function was calculated for both red and green channels of each well individually and subtracted to correct for illumination variations across the 384-well plate from various sources of error. An additional step was then applied to the green channel to suppress the analysis of large auto fluorescent artifacts and enhance the analysis of cell specific fluorescence by way of selecting for objects under a given size, 30 A.U., and with a given shape, speckles. mCherry-positive cells were then identified in the red channel filtering for objects between 8-60 pixels in diameter and using intensity to distinguish between clumped objects. The green channel was then segmented into GFP positive and negative areas and objects were labeled as GFP positive if at least 40% of it overlapped with a GFP positive area. The fraction of GFP-positive cells/mCherry-positive cells in each well was then calculated, and the green and red images were rescaled for visualization.
The degradation assay was performed as described above. […] Degradation was measured after 5 h of compound treatment and the concentrations that lead to half degradation at 5 h (DC50,5 h) were calculated using the nonlinear fit variable slope model (GraphPad Software).

[3] = target: T1, CRBN and Helios (IKZF2) (Homo sapiens, UniProt Q96SW2+Q9UKS7); assay: TR-FRET dimerization assay (CRBN-IKZF2 ternary complex formation); format: binding; details: n=1
T1 construct: His (N); Strep (N)
How it was run: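 Compound-induced IKZF2 recruitment to CRBN was read as the 520/490 nm TR-FRET ratio after 15 min at rt. The mix held biotinylated IKZF2, BODIPY-labeled CRBN bound to DDB1 lacking the BPB propeller, tracer Tb-streptavidin and compound titrations; n=1, from ≥3 technical replicates per well.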

[4] = target: T2, IKZF1 (Homo sapiens, UniProt Q13422); assay: Cellular degradation assay, eGFP-IKZF1Δ fusion with mCherry reporter in Flp-In 293 cells; format: cell-based; details: for IKZF1 GFP/RFP Relative Abundance: 5 h incubation, n=1; for DC50: half degradation at 5 h (DC50,5 h), triplicate, 11 point dose response
T2 construct: expressed in transfected cells; host or cells: Flp-In 293
How it was run: as §1

[5] = compound concentration 2.00E−05
[6] = compound concentration 2.00E−06
[7] = compound concentration 2.00E−07
[8] = compound concentration 6.6667E−05
[9] = compound concentration 6.6667E−06
[10] = compound concentration 6.6667E−07 (667 nM)

Chain of GSPT1 (P15170 whole entry, the tested form may be a part): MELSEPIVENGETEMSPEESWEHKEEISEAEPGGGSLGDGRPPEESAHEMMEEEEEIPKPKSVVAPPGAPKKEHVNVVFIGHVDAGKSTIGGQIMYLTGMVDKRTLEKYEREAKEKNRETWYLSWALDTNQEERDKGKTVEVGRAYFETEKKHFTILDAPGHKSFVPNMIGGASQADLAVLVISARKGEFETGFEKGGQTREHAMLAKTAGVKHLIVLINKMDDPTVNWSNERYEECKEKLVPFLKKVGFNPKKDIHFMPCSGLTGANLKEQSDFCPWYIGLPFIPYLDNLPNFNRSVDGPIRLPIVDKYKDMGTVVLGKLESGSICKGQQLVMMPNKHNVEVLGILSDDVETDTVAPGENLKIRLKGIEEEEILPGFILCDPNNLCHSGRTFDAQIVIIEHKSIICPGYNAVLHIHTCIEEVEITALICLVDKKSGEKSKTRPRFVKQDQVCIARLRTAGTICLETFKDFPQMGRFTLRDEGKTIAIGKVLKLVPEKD
Chain of GSPT1 (Q96SW2 whole entry, the tested form may be a part): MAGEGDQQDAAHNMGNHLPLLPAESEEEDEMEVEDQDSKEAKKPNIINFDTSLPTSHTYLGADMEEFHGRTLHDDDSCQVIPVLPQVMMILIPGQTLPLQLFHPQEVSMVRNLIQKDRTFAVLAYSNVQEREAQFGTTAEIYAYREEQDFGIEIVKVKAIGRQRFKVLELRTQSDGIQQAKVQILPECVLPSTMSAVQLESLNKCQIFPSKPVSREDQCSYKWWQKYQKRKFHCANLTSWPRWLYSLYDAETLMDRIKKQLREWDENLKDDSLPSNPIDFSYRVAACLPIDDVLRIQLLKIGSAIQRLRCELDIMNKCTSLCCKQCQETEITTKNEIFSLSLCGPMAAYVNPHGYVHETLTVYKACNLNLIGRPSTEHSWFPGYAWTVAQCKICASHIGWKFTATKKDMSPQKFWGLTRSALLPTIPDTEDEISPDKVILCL
Chain of GSPT1 (Q16531 whole entry partner, the tested form may be a part): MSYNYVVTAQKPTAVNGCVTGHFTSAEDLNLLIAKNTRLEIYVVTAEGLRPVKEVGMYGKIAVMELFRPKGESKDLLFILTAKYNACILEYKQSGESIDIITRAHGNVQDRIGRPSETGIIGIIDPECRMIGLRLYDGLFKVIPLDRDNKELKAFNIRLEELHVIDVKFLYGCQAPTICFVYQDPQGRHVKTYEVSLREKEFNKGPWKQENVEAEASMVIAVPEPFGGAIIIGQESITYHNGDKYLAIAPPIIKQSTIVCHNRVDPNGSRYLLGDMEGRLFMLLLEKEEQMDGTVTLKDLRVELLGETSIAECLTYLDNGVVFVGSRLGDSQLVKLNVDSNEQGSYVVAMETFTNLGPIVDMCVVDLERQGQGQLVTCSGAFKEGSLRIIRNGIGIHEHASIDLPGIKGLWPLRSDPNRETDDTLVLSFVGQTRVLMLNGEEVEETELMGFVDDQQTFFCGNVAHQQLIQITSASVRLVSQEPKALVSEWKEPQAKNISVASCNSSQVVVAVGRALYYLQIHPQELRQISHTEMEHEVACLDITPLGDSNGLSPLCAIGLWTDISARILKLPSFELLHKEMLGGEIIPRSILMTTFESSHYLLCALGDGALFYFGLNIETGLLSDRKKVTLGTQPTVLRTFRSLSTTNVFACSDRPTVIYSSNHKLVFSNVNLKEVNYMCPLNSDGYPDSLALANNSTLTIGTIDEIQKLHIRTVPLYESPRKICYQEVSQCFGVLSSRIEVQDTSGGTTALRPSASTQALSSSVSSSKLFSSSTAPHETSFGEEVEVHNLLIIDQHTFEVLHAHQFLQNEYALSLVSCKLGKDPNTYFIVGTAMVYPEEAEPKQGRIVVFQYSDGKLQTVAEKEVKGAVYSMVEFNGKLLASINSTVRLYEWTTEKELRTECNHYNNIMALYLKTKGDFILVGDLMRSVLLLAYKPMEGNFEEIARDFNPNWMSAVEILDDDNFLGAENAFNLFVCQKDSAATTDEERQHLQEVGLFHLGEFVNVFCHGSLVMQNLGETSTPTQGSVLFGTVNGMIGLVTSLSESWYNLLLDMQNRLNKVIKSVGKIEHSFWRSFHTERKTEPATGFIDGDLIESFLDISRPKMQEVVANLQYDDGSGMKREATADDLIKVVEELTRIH
T1 sequence (Q96SW2 whole entry): as the sequence (Q96SW2 whole entry, the tested form may be a part) above
T1 sequence (Q9UKS7 whole entry): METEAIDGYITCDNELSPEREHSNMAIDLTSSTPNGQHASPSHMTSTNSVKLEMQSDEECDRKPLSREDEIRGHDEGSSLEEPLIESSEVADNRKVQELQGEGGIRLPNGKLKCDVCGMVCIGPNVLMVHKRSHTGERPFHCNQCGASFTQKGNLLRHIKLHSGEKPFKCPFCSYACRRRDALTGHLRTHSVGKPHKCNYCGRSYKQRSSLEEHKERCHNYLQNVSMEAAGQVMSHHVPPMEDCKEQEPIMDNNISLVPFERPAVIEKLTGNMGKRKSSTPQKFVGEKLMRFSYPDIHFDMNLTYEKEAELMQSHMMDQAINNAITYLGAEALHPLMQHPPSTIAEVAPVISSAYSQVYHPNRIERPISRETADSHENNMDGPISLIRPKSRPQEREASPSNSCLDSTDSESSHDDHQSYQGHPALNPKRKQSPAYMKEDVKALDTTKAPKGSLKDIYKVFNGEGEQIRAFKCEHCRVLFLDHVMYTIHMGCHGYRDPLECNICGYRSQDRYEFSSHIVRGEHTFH
T2 sequence (Q13422 83-213 isoform Q13422-7 limits assumed): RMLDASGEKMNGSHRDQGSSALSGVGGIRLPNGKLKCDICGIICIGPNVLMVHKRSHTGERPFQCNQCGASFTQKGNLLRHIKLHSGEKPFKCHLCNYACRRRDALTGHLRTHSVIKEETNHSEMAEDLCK
T2 sequence (Q96SW2 whole entry partner, the tested form may be a part): as the sequence (Q96SW2 whole entry, the tested form may be a part) above
T2 sequence (Q16531 2-1140 partner limits assumed): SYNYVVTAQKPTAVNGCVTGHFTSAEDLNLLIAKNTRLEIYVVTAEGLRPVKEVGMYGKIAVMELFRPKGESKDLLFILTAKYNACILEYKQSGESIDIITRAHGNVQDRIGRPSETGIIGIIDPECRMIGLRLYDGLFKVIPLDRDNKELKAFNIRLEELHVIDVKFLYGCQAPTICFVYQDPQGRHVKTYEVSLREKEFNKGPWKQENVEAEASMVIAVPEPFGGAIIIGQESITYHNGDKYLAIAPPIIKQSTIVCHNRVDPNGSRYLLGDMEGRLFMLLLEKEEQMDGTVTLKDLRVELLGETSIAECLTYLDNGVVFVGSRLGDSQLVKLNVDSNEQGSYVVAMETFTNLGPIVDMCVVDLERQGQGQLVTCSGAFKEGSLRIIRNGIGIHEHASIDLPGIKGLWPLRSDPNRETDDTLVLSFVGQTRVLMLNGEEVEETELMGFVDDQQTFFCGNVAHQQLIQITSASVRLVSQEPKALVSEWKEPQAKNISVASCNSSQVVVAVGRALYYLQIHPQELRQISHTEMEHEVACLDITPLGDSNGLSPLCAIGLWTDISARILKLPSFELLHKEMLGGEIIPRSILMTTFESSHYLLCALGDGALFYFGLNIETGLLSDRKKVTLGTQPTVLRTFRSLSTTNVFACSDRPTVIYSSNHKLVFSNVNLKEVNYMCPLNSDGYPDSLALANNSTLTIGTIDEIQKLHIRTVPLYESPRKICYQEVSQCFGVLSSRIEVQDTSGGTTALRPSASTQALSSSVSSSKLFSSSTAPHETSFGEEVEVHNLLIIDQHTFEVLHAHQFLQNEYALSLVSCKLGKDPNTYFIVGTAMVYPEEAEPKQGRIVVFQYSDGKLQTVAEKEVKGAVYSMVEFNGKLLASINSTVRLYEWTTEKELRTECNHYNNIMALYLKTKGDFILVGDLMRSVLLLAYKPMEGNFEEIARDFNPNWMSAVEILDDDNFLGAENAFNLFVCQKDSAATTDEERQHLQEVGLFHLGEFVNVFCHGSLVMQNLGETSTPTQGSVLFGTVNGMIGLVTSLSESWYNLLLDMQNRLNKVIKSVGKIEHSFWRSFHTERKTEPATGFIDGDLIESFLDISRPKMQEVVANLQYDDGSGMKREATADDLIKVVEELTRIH

| Structure (SMILES) | IKZF2 GFP/RFP Relative Abundance [1, 5] | IKZF2 GFP/RFP Relative Abundance [1, 6] | IKZF2 GFP/RFP Relative Abundance [1, 7] | GSPT1 GFP/RFP Relative Abundance [2, 5] | GSPT1 GFP/RFP Relative Abundance [2, 6] | GSPT1 GFP/RFP Relative Abundance [2, 7] | TR-FRET-IKZF2 (Normalized to CC-885) [3, 8] | TR-FRET-IKZF2 (Normalized to CC-885) [3, 9] | TR-FRET-IKZF2 (Normalized to CC-885) [3, 10] | IKZF1 GFP/RFP Relative Abundance [4, 5] | IKZF1 GFP/RFP Relative Abundance [4, 6] | IKZF1 GFP/RFP Relative Abundance [4, 7] | DC50 [1] [µM] | DC50 [2] [µM] | DC50 [4] [µM] | potency of IKZF2 degradation, in words ([1]; Table 3 summary) |
| --- | --- | --- | --- | --- | --- | --- | --- | --- | --- | --- | --- | --- | --- | --- | --- | --- |
| O=C1CCC(N2C(=O)C=C(Nc3cccc(NC(=O)Nc4ccc(Cl)c(Cl)c4)c3)C2=O)C(=O)N1 (stereo not shown) [Compound 56, 1-(3,4-dichlorophenyl)-3-(3-((1-(2,6-dioxopiperidin-3-yl)-2,5-dioxo-2,5-dihydro-1H-pyrrol-3-yl)amino)phenyl)urea] | 1.092 | 1.025 | 0.983 | 1.572 | 0.074 | 0.112 | 0.383 | 0.282 | 0.187 | 1.190 | 0.319 | 0.403 |  |  |  |  |
| Cc1ccc(NC(=O)/C=C/c2cccc(NC3=CC(=O)N(C4CCC(=O)NC4=O)C3=O)c2)cc1Cl (stereo not shown) [Compound 57, (E)-N-(3-chloro-4-methylphenyl)-3-(3-((1-(2,6-dioxopiperidin-3-yl)-2,5-dioxo-2,5-dihydro-1H-pyrrol-3-yl)amino)phenyl)acrylamide] | 0.843 | 0.622 | 0.656 | 0.385 | 0.559 | 0.779 | 0.530 | 0.365 | 0.282 | 0.502 | 0.214 | 0.305 |  |  |  |  |
| Cc1ccc(NC(=O)NCc2cccc(NC3=CC(=O)N(C4CCC(=O)NC4=O)C3=O)c2)cc1C (stereo not shown) [Compound 58, 1-(3,4-dimethylphenyl)-3-(3-((1-(2,6-dioxopiperidin-3-yl)-2,5-dioxo-2,5-dihydro-1H-pyrrol-3-yl)amino)benzyl)urea] | 0.064 | 0.077 | 0.122 | 0.421 | 0.603 | 0.594 | 1.184 | 1.061 | 0.927 | 0.075 | 0.070 | 0.074 |  |  |  |  |
| O=C1CCC(N2C(=O)C=C(Nc3cccc(CNC(=O)Nc4ccc(Cl)c(Cl)c4)c3)C2=O)C(=O)N1 (stereo not shown) [Compound 59, 1-(3,4-dichlorophenyl)-3-(3-((1-(2,6-dioxopiperidin-3-yl)-2,5-dioxo-2,5-dihydro-1H-pyrrol-3-yl)amino)benzyl)urea] | 0.099 | 0.072 | 0.108 | 0.247 | 0.734 | 0.952 | 1.224 | 1.165 | 1.035 | 0.144 | 0.097 | 0.066 |  |  |  |  |
| Cc1ccc(CC(=O)NCc2cccc(NC3=CC(=O)N(C4CCC(=O)NC4=O)C3=O)c2)cc1C (stereo not shown) [Compound 60, 2-(3,4-dimethylphenyl)-N-(3-((1-(2,6-dioxopiperidin-3-yl)-2,5-dioxo-2,5-dihydro-1H-pyrrol-3-yl)amino)benzyl)acetamide] | 0.087 | 0.151 | 0.185 | 0.387 | 0.558 | 0.528 | 1.082 | 0.945 | 0.833 | 0.132 | 0.078 | 0.091 |  |  |  |  |
| O=C(Cc1ccc(Cl)c(Cl)c1)NCc1cccc(NC2=CC(=O)N(C3CCC(=O)NC3=O)C2=O)c1 (stereo not shown) [Compound 61, 2-(3,4-dichlorophenyl)-N-(3-((1-(2,6-dioxopiperidin-3-yl)-2,5-dioxo-2,5-dihydro-1H-pyrrol-3-yl)amino)benzyl)acetamide] | 0.044 | 0.045 | 0.050 | 0.190 | 0.466 | 0.737 | 1.465 | 1.248 | 1.201 | 0.111 | 0.104 | 0.103 |  |  |  |  |
| Cc1ccc(NC(=O)NCCc2cccc(NC3=CC(=O)N(C4CCC(=O)NC4=O)C3=O)c2)cc1Cl (stereo not shown) [Compound 62, 1-(3-chloro-4-methylphenyl)-3-(3-((1-(2,6-dioxopiperidin-3-yl)-2,5-dioxo-2,5-dihydro-1H-pyrrol-3-yl)amino)phenethyl)urea] | 0.040 | 0.015 | 0.036 | 0.353 | 1.021 | 1.208 | 1.642 | 1.563 | 1.483 | 0.133 | 0.098 | 0.109 | 0.029 | > 1 | 0.026 |  |
| Cc1ccc(NCc2cccc(NC3=CC(=O)N(C4CCC(=O)NC4=O)C3=O)c2)cc1Cl (stereo not shown) [Compound 63, 3-(3-((3-(((3-chloro-4-methylphenyl)amino)methyl)-phenyl)amino)-2,5-dioxo-2,5-dihydro-1H-pyrrol-1-yl)piperidine-2,6-dione] | 0.428 | 0.339 | 0.470 | 0.274 | 0.722 | 0.844 | 0.703 | 0.649 | 0.625 | 0.081 | 0.068 | 0.086 |  |  |  |  |
| Cc1ccc(NC(=O)N[C@@H](C)c2cccc(NC3=CC(=O)N(C4CCC(=O)NC4=O)C3=O)c2)cc1Cl (stereo partly drawn) [Compound 71, 1-(3-chloro-4-methylphenyl)-3-((1S)-1-(3-((1-(2,6-dioxopiperidin-3-yl)-2,5-dioxo-2,5-dihydro-1H-pyrrol-3-yl)amino)phenyl)ethyl)urea] | 0.016 | 0.018 | 0.019 |  |  |  | 1.811 | 1.675 | 1.657 | 0.088 | 0.086 | 0.076 | 0.0019 | > 1 | 0.0021 | most potent against IKZF2 |
